Measured values: patent US8946431B2, “2-(substituted ethynyl)quinoline derivatives as mGLUr5 antagonists” (Korea Institute of Science and Technology, priority 2013, dated 2015)

Tests used:
mGluR5 [1] = molecular target: T1, mGluR5 (Homo sapiens, UniProt P41594); experiment: Assay for m-GluR5 activity using FDSS6000 (calcium mobilization by L-glutamate in mGluR5/HEK293 cells); type: cell-based; details: L-glutamate 10 uM, HEK cells expressing m-GluR5; for inhibition at 1 µM / inhibition at 10 µM: HEK293, read-out: % Inhibition rate (mGluR5)
T1 construct: host or cells: HEK293 (human embryonic kidney) cells stably expressing m-GluR5
Protocol: Inhibitory activity (%) of the compound represented by Formula 1 on calcium mobilization developed at a high concentration of glutamate in mGluR5/HEK293 cells was measured by using a high throughput FDSS6000.
After HEK cells stably expressing m-GluR5 (Human embryonic kidney cell line; m-GluR5: Yonsei University) were prepared at a density of 4×10^4/Ml per well, aliquots of 100 μl from the cell suspension were distributed evenly into a 96-well plate and incubated for 18 hr at 37° C., 5% CO2. The well plate was washed with a HBSS buffer to remove the culture medium, and reacted with a HBSS buffer containing a Ca^2+ fluorescent dye (FLIPR Calcium 5 assay kit: Molecular Devices) for 30 min at 37° C., 5% CO2, thereby labeling with the fluorescent dye. Separately from the 96-well plate including the cells, another 96-well plate including L-glutamate (final concentration: 10 uM) capable of activating m-GluR5 and a blacking agent was prepared. Since most of cell-based HTS devices are equipped with a liquid application system for injection of a drug, but have no liquid sucking system, the blocking agent to be tested and L-glutamate were respectively provided at a 6-fold higher concentration in a HBSS buffer at the amount of 25 μl, diluted by six-times at the final cell plate volume of 150 μl, and then used in this assay. Briefly, the FDSS6000 assay was carried out by recording a reference level of 20 sec, pre-treating with a blocking agent for 75 sec, and then measuring the change in intracellular calcium level depending on the administration of L-glutamate. After the area of a 480/520 ratio value in a control without treatment of a test drug was set to 100%, an inhibitory effect of the test drug was calculated as a percentage (%) thereon.
For accurate calcium imaging, the light source of 4 xenon lamps in FDSS6000 were radiated to selectively expose the cells to the excitation wavelength (480 nm) by a computer-controlled filter wheel. Data were obtained at intervals of 1.23 sec. The emitter fluorescence light inflowed through a 520 nm long-pass filter was obtained as an average 480/520 ratio value for each well in the 96-wells by using a CCD camera and a digital fluorescence analyzer in FDSS6000. All image data and analyses were obtained by using a FDSS6000-exclusive program from Hamamatsu Photonics.

[2] = HLM (human liver microsomal) stability; type: in vitro ADME; details: human liver microsomes
CYP2D6 = CYP2D6 (Homo sapiens, UniProt P10635); experiment: CYP inhibitory rate, CYP2D6; type: in vitro ADME
CYP2C9 = CYP2C9 (Homo sapiens, UniProt P11712); experiment: CYP inhibitory rate, CYP2C9; type: in vitro ADME
CYP3A4 = CYP3A4 (Homo sapiens, UniProt P08684); experiment: CYP inhibitory rate, CYP3A4; type: in vitro ADME
mGluR5 [3] = molecular target: T1, mGluR5; experiment: Inhibitory concentration (IC50) on mGluR5; type: cell-based
hERG = hERG (Homo sapiens, UniProt Q12809); experiment: Inhibitory concentration (IC50) on hERG
Chain of hERG (Q12809 whole entry): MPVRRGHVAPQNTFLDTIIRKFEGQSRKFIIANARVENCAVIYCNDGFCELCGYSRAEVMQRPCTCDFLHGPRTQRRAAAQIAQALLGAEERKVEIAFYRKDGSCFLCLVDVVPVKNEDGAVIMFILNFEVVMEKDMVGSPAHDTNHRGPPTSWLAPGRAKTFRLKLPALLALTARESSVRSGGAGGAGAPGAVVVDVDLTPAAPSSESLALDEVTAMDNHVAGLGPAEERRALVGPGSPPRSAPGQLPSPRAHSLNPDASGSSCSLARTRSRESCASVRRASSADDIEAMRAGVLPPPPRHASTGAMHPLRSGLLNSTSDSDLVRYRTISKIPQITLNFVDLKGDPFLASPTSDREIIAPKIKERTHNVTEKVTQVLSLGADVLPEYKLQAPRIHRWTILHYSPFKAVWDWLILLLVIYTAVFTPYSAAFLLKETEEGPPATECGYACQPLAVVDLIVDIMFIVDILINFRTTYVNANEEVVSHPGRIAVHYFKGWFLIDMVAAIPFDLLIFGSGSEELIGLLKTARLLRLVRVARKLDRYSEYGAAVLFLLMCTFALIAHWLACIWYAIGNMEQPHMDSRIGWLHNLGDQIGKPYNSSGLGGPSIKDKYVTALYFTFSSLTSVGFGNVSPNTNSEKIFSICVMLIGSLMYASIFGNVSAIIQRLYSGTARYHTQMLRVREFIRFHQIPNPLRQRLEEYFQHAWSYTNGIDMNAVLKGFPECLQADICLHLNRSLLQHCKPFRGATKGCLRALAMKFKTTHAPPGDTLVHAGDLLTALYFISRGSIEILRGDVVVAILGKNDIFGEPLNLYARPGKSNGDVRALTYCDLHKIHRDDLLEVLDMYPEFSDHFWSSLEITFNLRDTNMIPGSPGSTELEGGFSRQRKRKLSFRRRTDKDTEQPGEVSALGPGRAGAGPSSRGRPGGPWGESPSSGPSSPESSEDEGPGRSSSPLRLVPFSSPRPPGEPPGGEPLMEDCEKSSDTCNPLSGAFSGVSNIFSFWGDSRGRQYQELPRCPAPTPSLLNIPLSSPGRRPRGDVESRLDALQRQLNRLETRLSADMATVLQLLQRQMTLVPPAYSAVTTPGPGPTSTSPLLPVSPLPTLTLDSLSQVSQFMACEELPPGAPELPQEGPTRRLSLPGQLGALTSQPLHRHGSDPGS

T1 sequence (P41594 21-1212): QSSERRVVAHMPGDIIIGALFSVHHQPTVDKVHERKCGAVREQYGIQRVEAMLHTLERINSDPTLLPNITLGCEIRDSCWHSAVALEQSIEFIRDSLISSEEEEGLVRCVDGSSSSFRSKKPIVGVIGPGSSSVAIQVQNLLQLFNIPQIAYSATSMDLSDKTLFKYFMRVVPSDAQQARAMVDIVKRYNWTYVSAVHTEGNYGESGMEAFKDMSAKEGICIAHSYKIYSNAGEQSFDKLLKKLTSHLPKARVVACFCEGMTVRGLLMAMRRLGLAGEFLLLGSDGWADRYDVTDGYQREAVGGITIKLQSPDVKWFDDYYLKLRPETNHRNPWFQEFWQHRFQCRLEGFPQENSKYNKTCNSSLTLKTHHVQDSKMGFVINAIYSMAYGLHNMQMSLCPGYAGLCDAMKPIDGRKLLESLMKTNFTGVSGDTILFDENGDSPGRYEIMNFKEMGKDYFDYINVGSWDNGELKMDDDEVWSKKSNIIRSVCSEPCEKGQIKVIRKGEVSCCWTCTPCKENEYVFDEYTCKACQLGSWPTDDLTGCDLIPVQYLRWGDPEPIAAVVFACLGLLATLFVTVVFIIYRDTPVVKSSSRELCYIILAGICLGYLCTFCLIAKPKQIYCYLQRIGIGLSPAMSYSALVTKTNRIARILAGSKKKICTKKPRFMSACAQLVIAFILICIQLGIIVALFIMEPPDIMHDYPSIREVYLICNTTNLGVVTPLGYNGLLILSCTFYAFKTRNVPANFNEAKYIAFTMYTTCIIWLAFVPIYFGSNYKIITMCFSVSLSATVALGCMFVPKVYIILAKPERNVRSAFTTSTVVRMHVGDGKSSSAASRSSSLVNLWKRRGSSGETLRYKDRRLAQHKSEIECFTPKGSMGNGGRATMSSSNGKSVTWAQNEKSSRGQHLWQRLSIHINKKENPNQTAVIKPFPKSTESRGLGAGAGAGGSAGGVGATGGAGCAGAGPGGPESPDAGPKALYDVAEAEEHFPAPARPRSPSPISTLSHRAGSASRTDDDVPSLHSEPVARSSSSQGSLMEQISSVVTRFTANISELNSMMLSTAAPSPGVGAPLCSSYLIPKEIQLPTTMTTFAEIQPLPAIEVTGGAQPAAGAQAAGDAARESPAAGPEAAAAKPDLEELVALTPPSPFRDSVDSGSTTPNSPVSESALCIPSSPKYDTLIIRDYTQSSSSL
Chain of CYP2C9 (P11712 whole entry): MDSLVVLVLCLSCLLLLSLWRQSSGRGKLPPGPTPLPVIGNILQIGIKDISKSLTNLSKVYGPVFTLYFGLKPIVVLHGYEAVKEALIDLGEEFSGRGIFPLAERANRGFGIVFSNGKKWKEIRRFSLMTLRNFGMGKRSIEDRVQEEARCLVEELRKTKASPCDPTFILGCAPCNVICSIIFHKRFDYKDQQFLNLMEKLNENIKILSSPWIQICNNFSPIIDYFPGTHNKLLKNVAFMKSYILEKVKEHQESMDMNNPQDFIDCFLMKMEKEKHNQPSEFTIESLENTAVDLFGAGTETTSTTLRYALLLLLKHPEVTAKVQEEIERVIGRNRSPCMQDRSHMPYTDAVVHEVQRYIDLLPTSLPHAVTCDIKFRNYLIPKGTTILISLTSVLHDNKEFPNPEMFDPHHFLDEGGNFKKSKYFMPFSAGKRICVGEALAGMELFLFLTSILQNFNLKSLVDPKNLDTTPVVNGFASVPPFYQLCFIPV
Chain of CYP3A4 (P08684 whole entry): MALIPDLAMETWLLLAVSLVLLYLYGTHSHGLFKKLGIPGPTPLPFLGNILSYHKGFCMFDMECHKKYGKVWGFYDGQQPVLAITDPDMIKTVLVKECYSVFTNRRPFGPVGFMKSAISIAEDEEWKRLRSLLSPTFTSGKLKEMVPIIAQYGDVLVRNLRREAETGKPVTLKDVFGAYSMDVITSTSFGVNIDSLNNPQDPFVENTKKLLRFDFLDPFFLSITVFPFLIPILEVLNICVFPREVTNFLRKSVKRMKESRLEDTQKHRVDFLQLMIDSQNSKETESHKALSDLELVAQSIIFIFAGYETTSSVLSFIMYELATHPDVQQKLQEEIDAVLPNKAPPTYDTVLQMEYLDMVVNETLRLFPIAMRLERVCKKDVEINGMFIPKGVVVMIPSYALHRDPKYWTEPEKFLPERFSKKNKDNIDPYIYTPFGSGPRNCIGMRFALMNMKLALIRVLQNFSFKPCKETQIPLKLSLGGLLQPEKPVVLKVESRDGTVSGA
Chain of CYP2D6 (P10635 whole entry): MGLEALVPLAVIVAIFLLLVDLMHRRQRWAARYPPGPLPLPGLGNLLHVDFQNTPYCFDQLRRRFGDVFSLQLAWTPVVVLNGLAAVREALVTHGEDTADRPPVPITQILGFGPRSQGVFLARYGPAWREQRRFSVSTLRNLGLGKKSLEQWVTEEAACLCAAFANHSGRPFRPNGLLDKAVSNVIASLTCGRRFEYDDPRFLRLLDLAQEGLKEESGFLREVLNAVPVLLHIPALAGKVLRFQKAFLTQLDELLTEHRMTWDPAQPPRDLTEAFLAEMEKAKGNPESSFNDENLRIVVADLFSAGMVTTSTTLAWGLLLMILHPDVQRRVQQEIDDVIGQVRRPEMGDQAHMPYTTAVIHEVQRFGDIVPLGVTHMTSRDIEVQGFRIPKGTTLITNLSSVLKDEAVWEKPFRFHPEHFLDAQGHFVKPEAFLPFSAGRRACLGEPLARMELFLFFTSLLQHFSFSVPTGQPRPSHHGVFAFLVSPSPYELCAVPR

Row | SMILES | inhibition at 1 µM (mGluR5 [1]; 1 μM compound) | inhibition at 10 µM (mGluR5 [1]; 10 μM compound) | also measured
1 | C(#Cc1ccc2ccccc2n1)c1ccccc1 [Example 11, 2-(Phenylethynyl)quinoline] | 35.9% | 67.7% | 
2 | Clc1cccc2nc(C#Cc3ccccn3)ccc12 [Example 12, 5-Chloro-2-(pyridine-2-ylethynyl)quinoline] | 31% | 64.3% | 
3 | FC(F)(F)c1cccnc1C#Cc1ccc2ccccc2n1 [Example 13, 2-((3-(Trifluoromethyl)pyridine-2-yl)ethynyl)quinoline] | 9.49% | 16.4% | 
4 | COc1cccc2nc(C#Cc3ccccc3)ccc12 [Example 14, 5-Methoxy-2-(phenylethynyl)quinoline] | 63.6% | 68% | HLM % remaining after 30 min [2]: <1%; CYP (% remaining @ 10 μM) CYP2D6 (CYP2D6): >99%; CYP (% remaining @ 10 μM) CYP2C9 (CYP2C9): 55%; CYP (% remaining @ 10 μM) CYP3A4 (CYP3A4): 50%
5 | CC(C)(C)C(=O)Oc1cccc2nc(C#Cc3ccccc3)ccc12 [Example 15, 2-(Phenylethynyl)quinoline-5-ylpivalate] |  |  | % Inhibition rate (mGluR5) (mGluR5 [1]; 1 μM compound): 24.03%; % Inhibition rate (mGluR5) (mGluR5 [1]; 10 μM compound): 23.77%
6 | Oc1cccc2nc(C#Cc3ccccc3)ccc12 [Example 16, 2-(Phenylethynyl)quinoline-5-ol] | 18% | 24.3% | 
7 | Clc1cccc2nc(C#Cc3ccccc3)ccc12 [Example 17, 5-Chloro-2-(phenylethynyl)quinoline] | 11.7% | 8.02% | 
8 | Brc1cccc2nc(C#Cc3ccccc3)ccc12 [Example 18, 5-Bromo-2-(phenylethynyl)quinoline] | 21.1% | 20.7% | 
9 | C(#Cc1ccc2ccccc2n1)c1cccnc1 [Example 19, 2-(Pyridine-3-ylethynyl)quinoline] | 43.9% | 65.8% | 
10 | COc1cccc2nc(C#Cc3cccnc3)ccc12 [Example 20, 5-Methoxy-2-(pyridine-3-ylethynyl)quinoline] | 67.7% | 67.7% | 
11 | CCOc1cccc2nc(C#Cc3cccnc3)ccc12 [Example 21, 5-Ethoxy-2-(pyridine-3-ylethynyl)quinoline] | 47.2% | 66.6% | 
12 | CC(C)(C)C(=O)Oc1cccc2nc(C#Cc3cccnc3)ccc12 [Example 22, 2-(Pyridine-3-ylethynyl)quinoline-5-ylpivalate] |  |  | % Inhibition rate (mGluR5) (mGluR5 [1]; 1 μM compound): 10.56%; % Inhibition rate (mGluR5) (mGluR5 [1]; 10 μM compound): 28.5%
13 | Oc1cccc2nc(C#Cc3cccnc3)ccc12 [Example 23, 2-(Pyridine-3-ylethynyl)quinoline-5-ol] | 25.2% | 17.6% | 
14 | Clc1cccc2nc(C#Cc3cccnc3)ccc12 [Example 24, 5-Chloro-2-(pyridine-3-ylethynyl)quinoline] | 11.2% | 28.4% | 
15 | Brc1cccc2nc(C#Cc3cccnc3)ccc12 [Example 25, 5-Bromo-2-(pyridine-3-ylethynyl)quinoline] | 22% | 40.1% | 
16 | CC(C)(C)C(=O)Oc1cccc2nc(C#Cc3ccccn3)ccc12 [Example 27, 2-(Pyridine-2-ylethynyl)quinoline-5-ylpivalate] |  |  | % Inhibition rate (mGluR5) (mGluR5 [1]; 1 μM compound): 17.12%; % Inhibition rate (mGluR5) (mGluR5 [1]; 10 μM compound): 62.44%
17 | Oc1cccc2nc(C#Cc3ccccn3)ccc12 [Example 28, 2-(Pyridine-2-ylethynyl)quinoline-5-ol] | 17.4% | 22.1% | 

Row | SMILES | inhibition at 1 µM (mGluR5 [1]; 1 μM compound) | inhibition at 10 µM (mGluR5 [1]; 10 μM compound) | also measured
18 | Brc1cccc2nc(C#Cc3ccccn3)ccc12 [Example 29, 5-Bromo-2-(pyridine-2-ylethynyl)quinoline] | 56.7% | 77.5% | 
19 | Fc1cccnc1C#Cc1ccc2ccccc2n1 [Example 30, 2-((3-Fluoropyridine-2-yl)ethynyl)quinoline] | 31.3% | 55.2% | 
20 | Cc1cccnc1C#Cc1ccc2ccccc2n1 [Example 31, 2-((3-Methylpyridine-2-yl)ethynyl)quinoline] | 18.9% | 40.1% | 
21 | FC(F)(F)c1ccnc(C#Cc2ccc3ccccc3n2)c1 [Example 32, 2-((4-(Trifluoromethyl)pyridine-2-yl)ethynyl)quinoline] | 23.3% | 58% | 
22 | N#Cc1ccnc(C#Cc2ccc3ccccc3n2)c1 [Example 33, 2-(Quinoline-2-ylethynyl)isonicotinonitrile] | 35.2% | 76.1% | 
23 | Cc1ccnc(C#Cc2ccc3ccccc3n2)c1 [Example 34, 2-((4-Methylpyridine-2-yl)ethynyl)quinoline] | 21.9% | 66.5% | 
24 | FC(F)(F)c1ccc(C#Cc2ccc3ccccc3n2)nc1 [Example 35, 2-((5-(Trifluoromethyl)pyridine-2-yl)ethynyl)quinoline] | 13% | 50.7% | 
25 | Fc1ccc(C#Cc2ccc3ccccc3n2)nc1 [Example 36, 2-((5-Fluoropyridine-2-yl)ethynyl)quinoline] | 33.9% | 63.3% | 
26 | Cc1ccc(C#Cc2ccc3ccccc3n2)nc1 [Example 37, 2-((5-Methylpyridine-2-yl)ethynyl)quinoline] | 29% | 66.3% | 
27 | FC(F)(F)c1cccc(C#Cc2ccc3ccccc3n2)n1 [Example 38, 2-((6-(Trifluoromethyl)pyridine-2-yl)ethynyl)quinoline] | 15.8% | 28.7% | 
28 | N#Cc1cccc(C#Cc2ccc3ccccc3n2)n1 [Example 39, 6-(Quinoline-2-ylethynyl)picolinonitrile] | 33% | 64.8% | IC50 (mGluR5 [3]): 0.75 ± 0.17 µM; IC50 (hERG): 22.7 ± 7.04 µM; HLM % remaining after 30 min [2]: 98%; CYP (% remaining @ 10 μM) CYP2D6 (CYP2D6): 78%; CYP (% remaining @ 10 μM) CYP2C9 (CYP2C9): 52%; CYP (% remaining @ 10 μM) CYP3A4 (CYP3A4): 56%
29 | Fc1cccc(C#Cc2ccc3ccccc3n2)n1 [Example 40, 2-((6-Fluoropyridine-2-yl)ethynyl)quinoline] | 29.6% | 46.9% | 
30 | COc1cccc(C#Cc2ccc3ccccc3n2)n1 [Example 41, 2-((6-Methoxypyridine-2-yl)ethynyl)quinoline] | 16.6% | 48.6% | 
31 | C(#Cc1ncccn1)c1ccc2ccccc2n1 [Example 42, 2-(Pyrimidine-2-ylethynyl)quinoline] | 17.1% | 28.6% | 
32 | FC(F)(F)c1ccnc(C#Cc2ccc3ccccc3n2)n1 [Example 43, 2-((4-(Trifluoromethyl)pyrimidine-2-yl)ethynyl)quinoline] | 17.3% | 15.9% | 
33 | Fc1cnc(C#Cc2ccc3ccccc3n2)nc1 [Example 44, 2-((5-Fluoropyrimidine-2-yl)ethynyl)quinoline] | 16% | 15.6% | 
34 | C(#Cc1ccc2ccccc2n1)c1cncnc1 [Example 45, 2-(Pyrimidine-5-ylethynyl)quinoline] | 13.6% | 22.4% | 
